Like-named read-outs stand apart in the source and are kept apart here.
What was measured:
[1] = target: T1, Bacillus subtilis AJ1307-derived TG (TG-1) (Bacillus subtilis, UniProt P40746, D22N); assay type: biochemical; conditions: for Influence of reagent on TG activity (in words): TG-1, summary of Table 1; for Remaining Activity (relative value): pH 7.5, 37° C.
T1 construct: The thus-obtained cells were used as the starting material, from which TG was purified in the manner mentioned below; endogenous in cells; host or cells: Bacillus subtilis AJ1307 (enzyme solubilized from spores and purified to a single band)
T1 sequence (P40746 whole entry D22N): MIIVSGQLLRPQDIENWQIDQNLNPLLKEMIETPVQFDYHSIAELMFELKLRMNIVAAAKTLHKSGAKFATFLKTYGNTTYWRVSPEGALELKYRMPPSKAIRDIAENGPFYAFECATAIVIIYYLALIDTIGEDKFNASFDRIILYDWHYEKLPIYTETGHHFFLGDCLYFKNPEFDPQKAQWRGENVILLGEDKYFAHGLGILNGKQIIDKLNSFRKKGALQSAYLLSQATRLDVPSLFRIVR
Method: The TG activity of the enzyme liquids obtained below was determined according to an enzymatic activity measuring method, which is as follows. […] The thus-counted value was referred to as the TG activity of the enzyme liquid.
Effects, if any, of various reagents on the TG activity were checked. The reagents tested herein were N-ethylmaleimide (NEM), cystamine, phenylmethanesulfonyl fluoride (PMSF), ammonium sulfate, sodium sulfate, EDTA, EGTA, calcium chloride, dithiothreitol (DTT) and 2-mercaptoethanol (2-ME). All were bought from Nacalai Tesque, Inc.
As the enzyme source, the previously-prepared pure TG fraction was used at a concentration of 2 μg/ml. The protein concentration was measured, using a protein assay kit (produced by Bio Rad Co.).
To measure the TG activity, the above-mentioned method of using ^1 4C-labeled putrescine and dimethylcasein as the substrates (at pH of 7.5 and at 37° C.) was employed. As the enzyme source, the previously-prepared pure TG fraction was used at a concentration of 2 μg/ml. The reaction was conducted at 37° C. for 30 minutes.
The TG activity was measured in the following manner. The above-mentioned pure TG fraction was mixed with each one of the reagents that had been adjusted to have a suitable concentration and then left on ice for 30 minutes. The solution of the enzyme source thus reacted with each reagent was adjusted to have a TG concentration of 2 μg/ml and then reacted with the substrates, whereupon the TG activity still remained in the resulting reaction system was measured (at pH of 7.5 and at 37° C.).

[2] = target: T2, Bacillus subtilis AJ12866-derived TG (TG-2) (Bacillus subtilis, UniProt P40746); assay: Influence of reagents on TG activity (TG active fraction after gel permeation, TG-2); conditions: for Remaining Activity (relative value): control = 100
T2 sequence (P40746 1-245): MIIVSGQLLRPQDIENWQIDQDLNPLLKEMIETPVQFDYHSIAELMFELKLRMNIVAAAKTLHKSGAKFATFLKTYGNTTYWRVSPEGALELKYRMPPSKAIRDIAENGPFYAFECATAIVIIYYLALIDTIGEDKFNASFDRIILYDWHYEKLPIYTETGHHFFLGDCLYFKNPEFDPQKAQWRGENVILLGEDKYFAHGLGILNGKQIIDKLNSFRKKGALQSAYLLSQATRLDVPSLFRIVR
Method: The method for measuring the enzymatic activity as employed herein was as follows. 50 μl of a reaction system (100 mM Tris-HCl, pH 7.5, 6.3 mg/ml dimethylcasein, 10 nM ^14 C-putrescine, 1.2 μCi) containing 10 μl of the enzyme sample to be measured was kept at 37° C. for 30 minutes thereby to make the substrates reacted. After the reaction, 40 μl of the reaction mixture was adsorbed onto filter paper. In the reaction mixture, the putrescine was reacted with the dimethylcasein due to the catalysis of the TG therein. A bonded reaction product of the putrescine and the dimethylcasein was adsorbed on the filter paper. By adding 10% TCA thereto, the bonded reaction product was fixed on the filter paper. Then, the filter paper was washed three times with a 5% TCA solution, and the ^1 4C radioactivity as fixed to the filter paper was counted with a liquid scintillation counter. The value thus measured corresponds to the relative TG activity of the enzyme sample.
The cells of Bacillus subtilis AJ12866 strain were suspended in a reaction system (0.5 mg/ml lysozyme, 20 μg/ml DNase I, 0.1 M Tris-HCl (pH 7.5), 2 mM DTT, 1 mM EDTA, 2 mM PMSF) and reacted on ice for 2 hours whereby the cells were lysed. The resulting reaction mixture was centrifuged at 20,000×g for 20 minutes, and the precipitate fraction thus obtained was suspended in a washing system (0.1 M Tris-HCl (pH 7.5), 1 mM EDTA, 2 mM PMSF). The resulting suspension was centrifuged, and the precipitate was collected. This operation was repeated for a total of two times.
The thus-obtained precipitate fraction was suspended in a buffer (0.1 M sodium carbonate (pH 10), 1 mM EDTA, 2 mM PMSF) and left at 37° C. for 30 minutes. Meanwhile, a part of the substances that had existed in the precipitate fraction were dissolved in the buffer and the TG activity was transferred to the soluble fraction. […] The pH of the supernatant was adjusted to 6.0 by adding acetic acid thereto. This is referred to as a crude enzyme liquid. The crude enzyme liquid was concentrated by ultrafiltration and then dialyzed against a buffer (50 mM Tris-HCl (pH 7.5), 0.1 M NaCl), whereby the buffer was exchanged. The resulting crude enzyme liquid was subjected to gel permeation, and the TG active fraction thus eluted was collected. The enzymatic properties of the fraction were measured.

[3] = tested on: Bacillus subtilis-derived TG reported by Ramanujam et al.; conditions: cited from earlier work
[4] = agent concentration 10 (unit not given), control = 100
[5] = agent concentration 5 (unit not given), control = 100

SMILES | Influence of reagent on TG activity (in words) [1] | Influence of reagent on TG activity (in words) ([2]; TG-2, Ca^2+ at 5 mM or more) | Remaining Activity (relative value) [1, 4] | Remaining Activity (relative value) ([2]; agent concentration 10 mM) | further results
CCN1C(=O)C=CC1=O [NEM, N-ethylmaleimide] | inhibited | greatly inhibited | – | – | Remaining Activity (relative value) ([1]; agent concentration 1 (unit not given), TG not reacted with reagent = 100, 30 min on ice with reagent): 17
O=C(O)CN(CCOCCOCCN(CC(=O)O)CC(=O)O)CC(=O)O [EGTA] | not inhibited | – | 98 | 94 | Influence of reagent on the activity of the reported TG (in words) [3]: greatly inhibited
NCCSSCCN [cystamine] | inhibited | greatly inhibited | – | – | Remaining Activity (relative value) ([1]; agent concentration 2 (unit not given), control = 100): 0
O=S(=O)([O-])[O-].[Na+].[Na+] [Na2 SO4, sodium sulfate] | not inhibited | – | 87 | 85 | –
N.N.O=S(=O)(O)O [(NH4)2 SO4, ammonium sulfate] | inhibited | greatly inhibited | 1 | 3 | –
O=C(O)CN(CCN(CC(=O)O)CC(=O)O)CC(=O)O [EDTA, ethylenediamine-tetraacetic acid] | not inhibited | – | 107 | – | Influence of reagent on TG activity (in words) [2]: almost no influence
O[C@H](CS)[C@H](O)CS (racemic) [DTT, dithiothreitol] | not inhibited | not inhibited | 119 | – | Influence of reagent on the activity of the reported TG (in words) [3]: inhibited; Increase of TG activity in the presence of DTT ([2]; 1 mM of DTT): ≥ 1.5 times
O=S(=O)(F)Cc1ccccc1 [PMSF, phenylmethanesulfonyl fluoride] | – | – | – | – | Remaining Activity (relative value) [1, 5]: 89; Remaining Activity (relative value) ([2]; agent concentration 5 mM): 95
[Ca+2].[Cl-].[Cl-] [CaCl2, calcium chloride] | – | not inhibited | – | – | TG activity maintained in the presence of Ca2+ ([1]; Ca2+ of not less than 5 mM): not less than 50%; Remaining Activity (relative value) [1, 5]: 65; Influence of Ca^2+ on the reported TG (in words) ([3]; Ca^2+ of 5 mM or more): inhibited
OCCS [2-ME, 2-mercaptoethanol] | not inhibited | – | 111 | 122 | –

From US5948662A, “Bacillus-derived transglutaminase” (Ajinomoto Co., Inc., priority 1995, dated 1999)
